In PubChem BioAssay AID330 (DTP/NCI, 2004):
Several values for one entry are separate records, joined by “and”; a condition that tells them apart may be missing. Identical values can stand only once. Inconclusive results and toxic doses are left out. How the source made its calls: active means survival T/C of 150% or more; inactive means T/C below 125% in these data.

System: P388 leukemia ip, CD2F1 mice, survival T/C
Assay: NCI In Vivo Anticancer Drug Screen. Data for tumor model P388 Leukemia (intraperitoneal) in CD2F1 (CDF1) mice
Conditions: endpoint: median survival time, higher = longer survival
Method in brief: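 Mice carrying the transplanted tumor received test compound or vehicle. Survival was recorded in each group, and the value is the treated-group measurement divided by that of the vehicle-treated control group.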

[1] = dose: 50.0 mg/kg/injection, schedule: Q01DX009 (ip), vehicle: Klucel (hydroxypropylcellulose) (HPC)
[2] = dose: 100.0 mg/kg/injection, schedule: Q01DX009 (ip), vehicle: Klucel (hydroxypropylcellulose) (HPC)
[3] = dose: 200.0 mg/kg/injection, schedule: Q01DX009 (ip), vehicle: Klucel (hydroxypropylcellulose) (HPC)
[4] = dose: 3.12 mg/kg/injection, schedule: Q01DX009 (ip), vehicle: saline
[5] = dose: 6.25 mg/kg/injection, schedule: Q01DX009 (ip), vehicle: saline
[6] = dose: 12.5 mg/kg/injection, schedule: Q01DX009 (ip), vehicle: saline
[7] = dose: 60.0 mg/kg/injection, schedule: Q01DX005 (ip), vehicle: saline with Tween-80
[8] = dose: 120.0 mg/kg/injection, schedule: Q01DX005 (ip), vehicle: saline with Tween-80
[9] = dose: 50.0 mg/kg/injection, schedule: Q01DX005 (ip), vehicle: Klucel (hydroxypropylcellulose) (HPC)
[10] = dose: 100.0 mg/kg/injection, schedule: Q01DX005 (ip), vehicle: Klucel (hydroxypropylcellulose) (HPC)
[11] = dose: 200.0 mg/kg/injection, schedule: Q01DX005 (ip), vehicle: Klucel (hydroxypropylcellulose) (HPC)
[12] = dose: 100.0 mg/kg/injection, schedule: Q01DX009 (ip), vehicle: saline with Tween-80
[13] = dose: 200.0 mg/kg/injection, schedule: Q01DX009 (ip), vehicle: saline with Tween-80
[14] = dose: 400.0 mg/kg/injection, schedule: Q01DX009 (ip), vehicle: saline with Tween-80
[15] = dose: 6.25 mg/kg/injection, schedule: Q01DX009 (ip), vehicle: saline with Tween-80
[16] = dose: 12.5 mg/kg/injection, schedule: Q01DX009 (ip), vehicle: saline with Tween-80
[17] = dose: 50.0 mg/kg/injection, schedule: Q01DX009 (ip), vehicle: saline with Tween-80
[18] = dose: 25.0 mg/kg/injection, schedule: Q01DX009 (ip), vehicle: saline with Tween-80
[19] = dose: 25.0 mg/kg/injection, schedule: Q01DX005 (ip), vehicle: Klucel (hydroxypropylcellulose) (HPC)

Measured: T/C

CCCN(CCC)C(C)C(O)c1ccc2cc(Br)c3ccccc3c2c1 (stereo not drawn)
inactive: dose: 50.0 mg/kg/injection, schedule: Q01DX005 (ip), vehicle: saline with Tween-80 98 % of control | dose: 100.0 mg/kg/injection, schedule: Q01DX005 (ip), vehicle: saline with Tween-80 99 % of control | dose: 200.0 mg/kg/injection, schedule: Q01DX005 (ip), vehicle: saline with Tween-80 100 % of control

Cn1c(-c2ccccc2)c(-c2ccccc2)c(=O)c(-c2ccccc2)c1-c1ccccc1
inactive: [1] 92 % of control | [2] 92 % of control | [3] 91 % of control

O=C(N1CCCCCC1)N1CC1
inactive: [1] 93 % of control | [2] 118 % of control

CC(C)N(c1ccnc(F)n1)C(C)C
inactive: dose: 30.0 mg/kg/injection, schedule: Q01DX005 (ip), vehicle: Klucel (hydroxypropylcellulose) (HPC) 102 % of control | dose: 60.0 mg/kg/injection, schedule: Q01DX005 (ip), vehicle: Klucel (hydroxypropylcellulose) (HPC) 104 % of control

CCCC[N+]1(CC)CCCCC1
inactive: [4] 97 % of control | [5] 113 % of control | [6] 106 % of control

CCc1nc(N)nc(N)c1-c1ccc(N2CC[N+](C)(C)CC2)cc1
inactive: dose: 0.24 mg/kg/injection, schedule: Q01DX005 (ip), vehicle: saline with Tween-80 99 % of control | dose: 0.48 mg/kg/injection, schedule: Q01DX005 (ip), vehicle: saline with Tween-80 101 % of control | dose: 0.94 mg/kg/injection, schedule: Q01DX005 (ip), vehicle: saline with Tween-80 105 % of control | dose: 0.96 mg/kg/injection, schedule: Q01DX005 (ip), vehicle: saline with Tween-80 119 % of control

O=C(NN1C(=O)CSC1c1ccc(F)cc1)c1ccncc1 (stereo not drawn)
inactive: [7] 99 % of control | [8] 100 % of control | dose: 240.0 mg/kg/injection, schedule: Q01DX005 (ip), vehicle: saline with Tween-80 92 % of control

O=C(OCC(Cl)(Cl)Cl)N1[C@@H]2C=C[C@@H](N1C(=O)OCC(Cl)(Cl)Cl)[C@@]13CC(OCc4ccc(Br)cc4)CC21O3 (stereo partly drawn)
inactive: [9] 105 % of control | [10] 95 % of control | [11] 95 % of control

OCc1nc2ccccc2[nH]1
inactive: dose: 25.0 mg/kg/injection, schedule: Q01DX009 (ip), vehicle: Klucel (hydroxypropylcellulose) (HPC) 96 % of control | [1] 97 % of control | [2] 96 % of control | [3] 114 % of control

CCCCCCCCCCC(=O)CCCC
inactive: [12] 109 % of control | dose: 100.0 mg/kg/injection, schedule: Q04DX003 (ip), vehicle: saline with Tween-80 100 % of control | [13] 104 % of control | dose: 200.0 mg/kg/injection, schedule: Q04DX003 (ip), vehicle: saline with Tween-80 95 % of control | [14] 109 % of control | dose: 400.0 mg/kg/injection, schedule: Q04DX003 (ip), vehicle: saline with Tween-80 95 % of control

C/C(=N\NC(=S)N1CCCCC1)c1ccccn1
inactive: [15] 98 % of control | [16] 100 % of control

CC(C)c1nccn1Cc1ccccc1
inactive: dose: 15.0 mg/kg/injection, schedule: Q01DX005 (ip), vehicle: saline 101 % of control | dose: 30.0 mg/kg/injection, schedule: Q01DX005 (ip), vehicle: saline 99 % of control | dose: 60.0 mg/kg/injection, schedule: Q01DX005 (ip), vehicle: saline 101 % of control and 90 % of control

Cc1[nH]c(NC(=O)C(=O)O)c(C#N)c1C
inactive: [17] 106 % of control | [13] 100 % of control

CC(C)N=C(Nc1ccccc1)c1ccccc1
inactive: [16] 93 % of control | [18] 89 % of control | dose: 50.0 mg/kg/injection, schedule: Q01DX009 (ip), vehicle: saline + Tween-80 + alcohol 88 % of control

CCCCC(NC(=O)C(C)N)C(=O)O (stereo not drawn)
inactive: [1] 98 % of control | [2] 98 % of control | [3] 95 % of control | dose: 400.0 mg/kg/injection, schedule: Q01DX009 (ip), vehicle: Klucel (hydroxypropylcellulose) (HPC) 101 % of control

Cc1cc(Nc2ccc3c(c2)OCO3)c2cc(C3CCCCC3)ccc2n1
inactive: [7] 95 % of control | [8] 91 % of control

Nc1ccc(S(=O)(=O)n2c(=O)oc3cc(Cl)ccc32)cc1
inactive: dose: 12.5 mg/kg/injection, schedule: Q01DX005 (ip), vehicle: Klucel (hydroxypropylcellulose) (HPC) 100 % of control | [19] 93 % of control | [9] 102 % of control and 91 % of control

COC(=O)N(C)C1=CCC(C(C)(C)C)CC1 (stereo not drawn)
inactive: [19] 103 % of control | [9] 106 % of control | [10] 107 % of control | [11] 105 % of control

O=C(/C=C/c1ccc2c(c1)OCO2)C1CC1
inactive: [17] 92 % of control | [12] 92 % of control | [13] 96 % of control

Cc1c(C)c(Cl)c(C)c(C)c1Cl
inactive: dose: 5.0 mg/kg/injection, schedule: Q01DX009 (ip), vehicle: saline with Tween-80 95 % of control | dose: 10.0 mg/kg/injection, schedule: Q01DX009 (ip), vehicle: saline with Tween-80 100 % of control | dose: 20.0 mg/kg/injection, schedule: Q01DX009 (ip), vehicle: saline with Tween-80 100 % of control

C=C1C(=O)OC2(C)CCCCC12 (stereo not drawn)
inactive: [1] 92 % of control | [2] 100 % of control | [3] 93 % of control

CCOC(=O)[C]1([Hg][CH3])N=NC(C(=O)OC)=C1C(=O)OC (stereo not drawn)
inactive: dose: 1.56 mg/kg/injection, schedule: Q01DX009 (ip), vehicle: saline 90 % of control | [4] 93 % of control | [5] 90 % of control | [6] 93 % of control

CCCC(C#N)OC(=O)c1ccccc1 (stereo not drawn)
inactive: [16] 104 % of control | [18] 100 % of control | [17] 104 % of control

COC(=O)C1CC2CCCCC2CC1OC(C)=O (stereo not drawn)
inactive: [18] 96 % of control | [17] 101 % of control and 111 % of control | [12] 106 % of control and 112 % of control and 121 % of control | [13] 99 % of control and 110 % of control and 121 % of control

CCCCN(CCCC)CC(O)c1cc2ccc(C(F)(F)F)cc2c2cc(C(F)(F)F)ccc12 (stereo not drawn)
inactive: [15] 93 % of control | [16] 94 % of control | [18] 88 % of control | [12] 100 % of control | [13] 99 % of control

CN(C)c1ccc(/C=c2\[nH]c(=O)/c(=C\c3ccc(N(C)C)cc3)[nH]c2=O)cc1
inactive: dose: 12.5 mg/kg/injection, schedule: Q01DX001 (ip), vehicle: saline with Tween-80 97 % of control | dose: 25.0 mg/kg/injection, schedule: Q01DX001 (ip), vehicle: saline with Tween-80 99 % of control | dose: 50.0 mg/kg/injection, schedule: Q01DX001 (ip), vehicle: saline with Tween-80 99 % of control | [17] 98 % of control | dose: 100.0 mg/kg/injection, schedule: Q01DX001 (ip), vehicle: saline with Tween-80 99 % of control | [12] 90 % of control | [13] 87 % of control | [14] 90 % of control

CC1CCC2CCCCN2CO1 (stereo not drawn)
inactive: [19] 105 % of control | [9] 101 % of control and 122 % of control and 96 % of control | [10] 101 % of control and 109 % of control and 112 % of control | [11] 104 % of control and 114 % of control and 118 % of control
